In patent US9056098B2, “Hemoglobin-based oxygen carrier-containing pharmaceutical composition for cancer targeting treatment and prevention of cancer recurrence” (Vision Global Holdings Ltd., priority 2012, dated 2015):
“And” between values parts separate entries of the source, which are not always exact repeats. Equal entries are not always repeated.

Key:
Type in all cases: cell-based
[1] = system: Huh7 cells; assay: MTT cytotoxicity assay in Huh7 cells
Description: (§1) HepG2 and Huh7 cell lines are used. These cells are cultured in DMEM (Invitrogen) with 10% Fetal bovine serum (FBS), 100 U/ml penicillin and 100 μg/ml streptomycin at 37° C. For normoxic condition, cells are incubated with ambient O2 concentration and 5% CO2; for hypoxic condition, cells are incubated with 0.1-0.5% O2 (Quorum FC-7 automatic CO2/O2/N2 gas mixer) and 5% CO2.
(§2) Cell viability is measured using a 3-(4,5-dimethylthiazol-2-yl)-2,5-diphenyltetrazolium bromide (MTT) proliferation assay. Briefly, HepG2 or Huh7 cells are seeded in a 96-well flat-bottomed microplate (6000 cells/well) and cultured in 100 μL growth medium at 37° C. and 5% CO2 for 24 h. Cell culture medium in each well is then replaced by 100 μL cell growth medium, containing either no drug, Hb alone or Hb with another chemotherapeutics at their IC50 concentrations. Incubation of Hb for 24 h, 20 μL MTT labeling reagent (5 mg/mL in PBS solution) is added to each well for further 4 h at 37° C. The growth medium is removed gently, and 200 μL DMSO is then added to each well as solubilizing agent to dissolve the formazan crystals completely. The absorbance at the wavelength of 570 nm is measured by Multiskan EX (Thermo Electron Corporation), and each data point represents the means±SD from triplicate wells.

[2] = system: MCF7 cells isolated from mammospheres (cancer stem cells); assay: MTT assay on cancer stem cells from MCF7 mammospheres; details: Hb 0.2 g/dL, Bort 0.5 μM, 5FU 5 μM
Description: as §2
To test sensitivity of the cancer stem cells to chemotherapeutic agent alone or to the combined therapy of hemoglobin-based oxygen carrier and the chemotherapeutic agent, different sets of chemotherapeutic agent and/or the hemoglobin-based oxygen carrier of the present invention are administered to MCF7 cells isolated from mammospheres which are obtained at later passages, e.g. passages 7 and 8. Before testing the sensitivity of the cancer stem cells, the drug resistance of CD44+/CD24− to chemotherapeutic agent is shown in FIG. 32. Unsorted MCF7 cells and CD44+/CD24− sorted cells are incubated with DMSO (as control) and 90 nM of Taxol for 16 hours and 4 days. Phase contrast images (FIG. 32) for each set of sample are taken at each time interval (16 hours and 4 days) and the sorted cells after Taxol treatment for 4 days are further tested by MTT assay (as described in Example 3) to confirm the drug resistance of these cells to chemotherapeutic agent.
The high resistance of the CSCs to chemotherapeutic agent is further confirmed by the results of MTT assays on single cells from two passages (P7 and P8) after the mammospheres are treated with different combination of chemical(s) for at least 24 hours before trypsinization of mammospheres. The mammospheres are grown under the hypoxic conditions (5% CO2, 1.1% 02) to mimic the physiological environment of a tumor. Different combination of chemical(s) used in the MTT assays include the Hb alone (0.2 g/dL), Bortezomib (“Bort”, 0.5 μM) alone, 5-fluorouracil (“5FU”, 5 μM) alone, or any combination of the above. In case of the combinational drug (i.e. Hb+at least one chemotherapeutic agent), the trypsinized cells are incubated with 0.2 g/dL of Hb for 24 hours followed by the addition of the intended chemotherapeutic agent(s) and incubated for another 24 hours. In the normalized value, “1” represents 100% of survival rate; 0.75 represents 75% of survival rate, etc.

[3] = system: HepG2 cells; assay: MTT cytotoxicity assay in HepG2 cells
Description: as §1, §2

[4] = system: CD44+/CD24− sorted MCF7 cells; assay: Taxol resistance of CD44+/CD24− sorted MCF7 cells (morphology, MTT); details: 90 nM
Description: as §2
In order to test the effect of hemoglobin-based oxygen carrier on the cancer stem cells in a tumor, the MCF7 cells are incubated under hypoxic condition (5% CO2 and 1.1% O2) for 9-20 days before passing to the cell sorter where two filters are used: PE-A for CD24 marker while APC-A for CD44 marker. Quadrant 1 where cells are positive to CD44 and negative to CD24 (FIG. 31) are sorted for further analysis. […]

[5] = Homo sapiens, Huh-7, Huh7 hypoxic
[6] = Homo sapiens, Huh-7, Huh7 normoxic
[7] = Mammosphere (P7) under Hypoxic condition
[8] = Mammosphere (P8) under Hypoxic condition
[9] = Homo sapiens, HepG2, HepG2 hypoxic
[10] = Homo sapiens, HepG2, HepG2 normoxic

SMILES | IC50 [1, 5] | IC50 [1, 6] | Absorbance (replicates) [2, 7] | Normalized absorbance (replicates), 1 represents 100% of survival rate [2, 7] | Normalized absorbance Avg, 1 represents 100% of survival rate [2, 7] | Absorbance (replicates) [2, 8] | Normalized absorbance (replicates), 1 represents 100% of survival rate [2, 8] | Normalized absorbance Avg, 1 represents 100% of survival rate [2, 8] | IC50 [3, 9] | IC50 [3, 10] | survival (MTT) ([4]; 4 days) | mammosphere formation ([4]; both unsorted and CD44+/CD24− sorted cells) | resistance of Huh7 cells as compared to HepG2 cells ([1]; hypoxic condition) | resistance of Huh7 cells as compared to HepG2 cells ([1]; normoxic condition) | IC50 ([1]; Huh7 hypoxic) | IC50 ([1]; Huh7 normoxic) | IC50 ([3]; HepG2 hypoxic) | IC50 ([3]; HepG2 normoxic)
O=c1[nH]cc(F)c(=O)[nH]1 [5FU, 5-fluorouracil] | 4000 µM | 3500 µM | 0.171 and 0.197 and 0.139 and 0.143 and 0.169 | 0.7566 and 0.8942 and 0.9048 and 1.042 and 0.7355 | 0.8667 | 0.155 and 0.165 and 0.129 and 0.157 | 0.7416 and 0.7895 and 0.6172 and 0.7512 | 0.7249 | 4000 µM | 4000 µM |  |  |  |  |  |  |  | 
CC(=O)O[C@H]1C(=O)[C@@]2(C)[C@H]([C@H](OC(=O)c3ccccc3)[C@]3(O)C[C@H](OC(=O)[C@H](O)[C@@H](NC(=O)c4ccccc4)c4ccccc4)C(C)=C1C3(C)C)[C@]1(OC(C)=O)CO[C@@H]1C[C@@H]2O [Taxol] |  |  |  |  |  |  |  |  |  |  | about 96% | seem to be inhibited |  |  |  |  |  | 
COc1cccc2c1C(=O)c1c(O)c3c(c(O)c1C2=O)C[C@@](O)(C(=O)CO)C[C@@H]3O[C@H]1C[C@H](N)[C@H](O)[C@H](C)O1 [Doxorubicin] | 6 µM | 5 µM |  |  |  |  |  |  | 30 µM | 10 µM |  |  |  |  |  |  |  | 
CC(C)C[C@H](NC(=O)[C@H](Cc1ccccc1)NC(=O)c1cnccn1)B(O)O [Bortezomib] | 60 µM | 55 µM | 0.178 and 0.172 and 0.177 and 0.163 and 0.174 | 0.8624 and 0.9206 and 0.9418 and 0.9101 and 0.9365 | 0.9143 | 0.169 and 0.166 and 0.159 and 0.155 | 0.8086 and 0.7943 and 0.7608 and 0.7416 | 0.7763 | 0.7 µM | 0.5 µM |  |  | 86 fold | 110 fold |  |  |  | 
N.N.[Cl][Pt][Cl] [Cisplatin] |  |  |  |  |  |  |  |  |  |  |  |  |  |  | 100 µM | 70 µM | 170 µM | 130 µM
